Patent publication US7268113B2, “Long lasting growth hormone releasing factor derivatives” (ConjuChem Biotechnologies Inc., priority 2002, dated 2007)
Read-outs that look alike come from different tables or passages of the source. Where a SMILES comes first, the peptide text is derived from it. [ ]: non-standard residue; d: D form. The star is where a group is joined. Propanoyl(3-maleimido) = O=C1C=CC(=O)N1CCC(=O)*

Tests used:
[1] = Pharmacokinetic studies in male Sprague-Dawley rats (plasma RIA); type: in vivo, rat
Procedure: Pharmacokinetic studies were carried out on the compounds of Examples 5 and 6. Each compound was injected subcutaneously (1 μmol/kg) or intravenously (100 nmol/kg) to male Sprague-Dawley rats. Serial blood samples were taken at pre-dose, 5, 30 and 60 minutes and 2, 4, 8, 24, 48, 72 and 96 hours post-agent administration. Plasma were harvested and frozen until analysis by radioimmunoassay (RIA). A commercial polyclonal antibody raised against human native GRF (1–29) was used to detect the compounds. The assay sensitivity was 300 to 10 000 pM. Consequently, some samples had to be diluted for analysis. The results of the pharmacokinetic profiles appear in FIG. 9. As it can be seen, the compound of Example 5, i.e., the native peptide, disappears very rapidly. In fact, the compound of Example 5, whether administered subcutaneously or intrasvenously, could not be detected after 60 minutes post administration. This is consistent with results in Sprague-Dawley rats reported in the literature for GRF (1–29) and other analogues thereof, regarding the terminal half-life thereof and the percentage of bioavailability (SC/IV) (see for example Peptides, 9:207–209, and J. Endocr., 107:R5–R8.

[2] = in vivo; cited from earlier work

Row | λ ([1]; intravenous administration, 100 nmol/kg, male Sprague-Dawley rats) | half-life ([1]; rat, in vivo, sc, 1 umol/kg, subcutaneous administration, 1 μmol/kg, male Sprague-Dawley rats, read-out: Terminal half-life (converted)) | time post administration at which compound remains detectable in plasma ([1]; subcutaneous (1 μmol/kg) or intravenous (100 nmol/kg), plasma RIA, FIG. 9) | λ ([1]; subcutaneous administration, 1 μmol/kg, male Sprague-Dawley rats) | Compound | half-life [2]
1 | 0.037 | 25.8 ± 2.1 h | ≥ 96 h | 0.027 | CC[C@H](C)[C@H](NC(=O)[C@H](C)NC(=O)[C@H](CC(=O)O)NC(=O)[C@@H](C)NC(=O)[C@@H](N)Cc1ccc(O)cc1)C(=O)N[C@@H](Cc1ccccc1)C(=O)N[C@H](C(=O)N[C@@H](CCC(N)=O)C(=O)N[C@@H](CO)C(=O)N[C@@H](Cc1ccc(O)cc1)C(=O)N[C@@H](CCCNC(=N)N)C(=O)N[C@@H](CCCCN)C(=O)N[C@H](C(=O)N[C@@H](CC(C)C)C(=O)N[C@@H](C)C(=O)N[C@@H](CCC(N)=O)C(=O)N[C@@H](CC(C)C)C(=O)N[C@@H](CO)C(=O)N[C@@H](C)C(=O)N[C@@H](CCCNC(=N)N)C(=O)N[C@@H](CCCCN)C(=O)N[C@@H](CC(C)C)C(=O)N[C@@H](CC(C)C)C(=O)N[C@@H](CCC(N)=O)C(=O)N[C@@H](CC(=O)O)C(=O)N[C@H](C(=O)N[C@@H](CC(C)C)C(=O)N[C@@H](CO)C(=O)N[C@@H](CCCNC(=N)N)C(=O)N[C@@H](CCCCNC(=O)CCN1C(=O)C=CC1=O)C(N)=O)[C@@H](C)CC)C(C)C)[C@@H](C)O [Example 6] (H-Y[dA]DAIFTQSYRKVLAQLSARKLLQDILSRK(Propanoyl(3-maleimido))-NH2) | 
2 |  |  |  |  | GRF 1–29: N-terminal 1–29 fragment of growth hormone releasing factor; commercial GRF(1–29) from Polypeptide Laboratories used as comparator | 0.167 to 0.217 h
